# According to patent US20110045101A1, “FUNGICIDAL SUBSTITUTED AZOLES” (E.I. Du Pont De Nemours and Company, priority 2009, published 2011):
# Marks after values point to notes of the source that are not given here.
# Experiments:
# Format in all cases: in vivo
# Settings in all cases: 100 = 100% disease control
# Botrytis cinerea = experiment: Test C: tomato Botrytis on tomato seedlings, sprayed the day before inoculation, visual disease rating
# How it was run: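 Tomato seedlings were sprayed until run-off with test suspensions in acetone/water (50/50) carrying 250 ppm polyhydric alcohol ester surfactant. Standard dose was 200 ppm, with 40 ppm for marked entries.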
# Alternaria solani = experiment: Test D: tomato early blight, sprayed the day before inoculation, visual disease rating
# How it was run: (§1)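 200 ppm run-off spray (500 g/ha equivalent); * = 40 ppm. Vehicle: acetone/water 50/50, 250 ppm Trem® 014.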
# Septoria nodorum = experiment: Test F: wheat glume blotch on wheat seedlings, sprayed the day before inoculation, visual disease rating
# How it was run: as §1
# Septoria tritici = experiment: Test G: wheat leaf blotch on wheat seedlings, sprayed the day before inoculation, visual disease rating
# How it was run: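 Compounds dissolved in acetone (3% of final volume), then suspended in 50/50 acetone/water with 250 ppm Trem® 014 and sprayed to run-off on seedlings at 200 ppm (≈500 g/ha) or 40 ppm where marked. Inoculation with spores followed next day; visual rating after 48 h saturated at 24° C plus 19 days at 20° C.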
# [1] = system: Puccinia recondita f. sp. tritici; experiment: Test H: wheat leaf rust, test suspension sprayed after inoculation of wheat seedlings, visual disease rating
# How it was run: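 Wheat seedlings inoculated with P. recondita spores, held 24 h saturated at 20 °C, then 2 days in growth chamber at 20 °C; compound suspension (acetone/water with Trem 014) sprayed to run-off afterwards. Rated visually; 200 ppm (≈500 g/ha) unless marked *, which denotes 40 ppm.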
# [2] = system: Puccinia recondita f. sp. tritici; experiment: Test I: wheat leaf rust on wheat seedlings, sprayed the day before inoculation, visual disease rating
# How it was run: as §1
# [3] = system: Erysiphe graminis f. sp. tritici; experiment: Test J: wheat powdery mildew on wheat seedlings, sprayed the day before inoculation, visual disease rating
# How it was run: as §1
# [4] = 200 ppm, 0 = no control relative to controls
# [5] = 40 ppm (marked *), 0 = no control
# [6] = Botrytis cinerea, 120 h, 40 ppm (marked *)
# [7] = Alternaria solani, 168 h, 40 ppm (marked *)
# [8] = Parastagonospora nodorum, 264 h, 40 ppm (marked *)
# [9] = Zymoseptoria tritici, 504 h, 40 ppm (marked *)
# [10] = Puccinia recondita, 96 h, 40 ppm (marked *)
# [11] = Puccinia recondita, 168 h, 40 ppm (marked *)
# [12] = Blumeria graminis, 168 h, 40 ppm (marked *)
Compound,Test C disease control rating (Botrytis cinerea; [4]) [%],Test D disease control rating (Alternaria solani; [4]) [%],Test F disease control rating (Septoria nodorum; [4]) [%],Test G disease control rating (Septoria tritici; [4]) [%],"Test H disease control rating [1, 4] [%]","Test I disease control rating [2, 4] [%]","Test J disease control rating [3, 4] [%]",also measured
CCOc1ccc(F)c(-c2c(Cl)nc(C)n2-c2ccc(Cl)cc2)c1F [compound 684],100,100,100,99,53,99,100,–
COc1cc(F)c(-c2c(Cl)nc(Cl)n2-c2cccnc2Cl)c(F)c1 [compound 513],99,100,100,100,100,100,100,–
Cc1nc(Br)c(-c2c(F)cccc2F)n1-c1ccc2ccccc2c1 [compound 336],–,–,–,–,–,–,–,"Test C disease control rating (Botrytis cinerea; [5]): 99* %; Test D disease control rating (Alternaria solani; [5]): 88* %; Test F disease control rating (Septoria nodorum; [5]): 99* %; Test G disease control rating (Septoria tritici; [5]): 96* %; Test H disease control rating [1, 5]: 0* %; Test I disease control rating [2, 5]: 74* %; Test J disease control rating [3, 5]: 87* %"
COc1cc(F)c(-c2c(Cl)nc(Cl)n2-c2ccc(C)cc2)c(F)c1Cl [compound 405],99,98,0,100,0,98,99,–
Fc1cccc(-n2c(Cl)nc(Cl)c2-c2c(F)ccc(F)c2F)c1 [compound 366],100,100,64,91,41,99,97,–
"COc1cc(F)c(-n2cnc(C)c2-c2ccc(Cl)nc2)c(F)c1 [Compound 685, 2-chloro-5-[1-(2,6-difluoro-4-methoxyphenyl)-4-methyl-1H-imidazol-5-yl]pyridine]",–,–,–,–,–,–,–,"pest or weed control at 40 ppm (Botrytis cinerea; [6]): 100%; pest or weed control at 40 ppm (Alternaria solani; [7]): 99%; pest or weed control at 40 ppm (Septoria nodorum; [8]): 0%; pest or weed control at 40 ppm (Septoria tritici; [9]): 87%; pest or weed control at 40 ppm [1, 10]: 0%; pest or weed control at 40 ppm [2, 11]: 68%; pest or weed control at 40 ppm [3, 12]: 64%"
COc1cc(F)c(-c2c(C)nc(Br)n2-c2ccc(C(F)(F)F)nc2)c(F)c1 [compound 731],99,100,99,100,0,99,100,–
Fc1cc(-n2cnc(Br)c2-c2c(F)ccc(F)c2F)ccc1Cl [compound 342],100,99,0,95,0,98,99,–
"COc1cc(F)c(-c2c(Cl)nc(C)n2-c2ccc(C(F)(F)F)nc2)c(F)c1 [Compound 713, 5-[4-chloro-5-(2,6-difluoro-4-methoxyphenyl)-2-methyl-1H-imidazol-1-yl]-2-(trifluoromethyl)pyridine]",–,–,–,–,–,–,–,"pest or weed control at 200 ppm (Botrytis cinerea; Botrytis cinerea, 120 h, 200 ppm, 0 = no control relative to controls): 100%; pest or weed control at 200 ppm (Alternaria solani; Alternaria solani, 168 h, 200 ppm, 0 = no control relative to controls): 100%; pest or weed control at 200 ppm (Septoria nodorum; Parastagonospora nodorum, 264 h, 200 ppm, 0 = no control relative to controls): 100%; pest or weed control at 200 ppm (Septoria tritici; Zymoseptoria tritici, 504 h, 200 ppm, 0 = no control relative to controls): 100%; pest or weed control at 200 ppm ([1]; Puccinia recondita, 96 h, 200 ppm, 0 = no control relative to controls): 78%; pest or weed control at 200 ppm ([2]; Puccinia recondita, 168 h, 200 ppm, 0 = no control relative to controls): 100%; pest or weed control at 200 ppm ([3]; Blumeria graminis, 168 h, 200 ppm, 0 = no control relative to controls): 100%"
Cc1nc(Cl)n(-c2ccc(Cl)c(F)c2)c1-c1sc(Cl)nc1Cl [compound 381],94,0,0,78,0,0,0,–
COc1cc(F)c(-c2c(Cl)nc(Cl)n2-c2ccc(C)c(Cl)c2)c(F)c1 [compound 502],–,–,–,–,–,–,–,Test C disease control rating (Botrytis cinerea; 40 ppm (marked *)): 90* %; Test D disease control rating (Alternaria solani; 40 ppm (marked *)): 92* %; Test F disease control rating (Septoria nodorum; 40 ppm (marked *)): 60* %; Test G disease control rating (Septoria tritici; 40 ppm (marked *)): 93* %; Test H disease control rating ([1]; 40 ppm (marked *)): 0* %; Test I disease control rating ([2]; 40 ppm (marked *)): 98* %; Test J disease control rating ([3]; 40 ppm (marked *)): 100* %
COc1ccc(-n2c(Br)nc(Br)c2-c2c(F)cccc2F)cn1 [compound 622],100,100,99,99,100,100,100,–
Fc1cc(-n2c(Cl)nc(Cl)c2-c2ccc(Br)cn2)ccc1Cl [compound 487],96,0,0,88,0,78,0,–
COc1cc(F)c(-n2cnc(C)c2-c2ccc(C)cc2)c(F)c1 [compound 560],–,–,–,–,–,–,–,Test C disease control rating (Botrytis cinerea; 40 ppm (marked *)): 99* %; Test D disease control rating (Alternaria solani; 40 ppm (marked *)): 0* %; Test F disease control rating (Septoria nodorum; 40 ppm (marked *)): 0* %; Test G disease control rating (Septoria tritici; 40 ppm (marked *)): 65* %; Test H disease control rating ([1]; 40 ppm (marked *)): 33* %; Test I disease control rating ([2]; 40 ppm (marked *)): 79* %; Test J disease control rating ([3]; 40 ppm (marked *)): 93* %
"COc1cc(OC)cc(-n2c(Cl)nc(C)c2-c2c(F)cc(OC)cc2F)c1 [Compound 694, 2-chloro-5-(2,6-difluoro-4-methoxyphenyl)-1-(3,5-dimethoxyphenyl)-4-methyl-1H-imidazole]",–,–,–,–,–,–,–,"pest or weed control at 40 ppm (Botrytis cinerea; [6]): 100%; pest or weed control at 40 ppm (Alternaria solani; [7]): 100%; pest or weed control at 40 ppm (Septoria nodorum; [8]): 99%; pest or weed control at 40 ppm (Septoria tritici; [9]): 98%; pest or weed control at 40 ppm [1, 10]: 0%; pest or weed control at 40 ppm [2, 11]: 99%; pest or weed control at 40 ppm [3, 12]: 98%"
Cc1nc(Cl)n(-c2ccc(Cl)cc2)c1-c1c(F)ccc(F)c1Cl [compound 414],–,–,–,–,–,–,–,"Test C disease control rating (Botrytis cinerea; [5]): 99* %; Test D disease control rating (Alternaria solani; [5]): 99* %; Test F disease control rating (Septoria nodorum; [5]): 0* %; Test G disease control rating (Septoria tritici; [5]): 96* %; Test H disease control rating [1, 5]: 0* %; Test I disease control rating [2, 5]: 93* %; Test J disease control rating [3, 5]: 100* %"
COc1ccc(-n2c(Cl)nc(Cl)c2-c2c(F)cccc2F)cn1 [compound 621],100,100,99,98,100,100,100,–
Cc1ncc(Cc2ccc(F)cc2F)n1-c1ccc(Cl)cc1 [compound 403],99,0,0,97,0,77,86,–
COc1cc(OC)c(Cl)c(-n2cnc(Br)c2-c2ccc(Cl)cc2F)c1 [compound 641],95,96,94,99,100,100,83,–
Cc1nc(Cl)n(-c2ccc(Cl)c(F)c2)c1-c1cncc(Br)c1 [compound 356],98,57,0,72,17,0,0,–
Fc1ccc(F)c(-c2c(Br)nc(Cl)n2-c2ccc(Cl)cc2)c1F [compound 351],100,100,99,93,54,100,100,–
